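The compound was tested at five concentrations on cells cultured in 96-well plates, with a 48-hour exposure period. Abbreviation: GI50, concentration required for 50% inhibition of growth. TGI: concentration producing complete growth inhibition.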

By GI50 is commonly meant the concentration that inhibits growth by half. The term TGI denotes the concentration at which net growth stops. Read a high TGI as lower sensitivity of the cells.

Test systems include A549 NSCLC; HOP-62 NSCLC; K-562 leukemia; NCI-H23 lung; NCI/ADR-RES ovarian; OVCAR-5 ovarian; RPMI-8226 leukemia; SNB-75 CNS; SW-620 colon; UACC-257 melanoma.
Common to all, as to test: DTP human tumour cell line panel, 48 h

Turning to `c1ccc(-c2[nH]ncc2-c2ccnc(-c3ccc(OCCN4CCOCC4)cc3)c2)nc1`, the GI50 with A549 NSCLC is more than 25 µM; in the experiment with HOP-62 NSCLC, more than 25 µM; in the experiment with K-562 leukemia, 13.2 µM; with NCI-H23 lung, more than 25 µM; with NCI/ADR-RES ovarian, more than 25 µM; with OVCAR-5 ovarian, more than 25 µM. Further, the GI50 in the experiment on RPMI-8226 leukemia, in the experiment on SNB-75 CNS, with SW-620 colon and in the experiment with UACC-257 melanoma was more than 25 µM each time. In addition, the TGI in the experiment on A549 NSCLC, with HOP-62 NSCLC, in the experiment with K-562 leukemia, with NCI-H23 lung, in the experiment with NCI/ADR-RES ovarian and in the experiment on OVCAR-5 ovarian was more than 25 µM each time. For the same compound, the TGI in the experiment with RPMI-8226 leukemia, with SNB-75 CNS, with SW-620 colon and with UACC-257 melanoma was more than 25 µM throughout.

Turning to `CC(C)(C)[Si](C)(C)OCC1OC(n2cnc3c(=O)[nH]cnc32)CC1O` (stereo not given), the TGI in the experiment on A549 NSCLC, with HOP-62 NSCLC, with K-562 leukemia, in the experiment on NCI-H23 lung, in the experiment with NCI/ADR-RES ovarian and in the experiment on OVCAR-5 ovarian was more than 100 µM each time. Further, the TGI with RPMI-8226 leukemia, in the experiment on SNB-75 CNS, in the experiment with SW-620 colon and with UACC-257 melanoma was more than 100 µM each time.

In the case of `CN1CCC2(CC1)N=C(SCC(=O)Nc1cnc3ccccc3c1)C(c1ccc(Br)cc1)=N2`, the GI50 in the experiment on A549 NSCLC was 5.01 µM; in the experiment with HOP-62 NSCLC it was 3.42 µM; in the experiment with K-562 leukemia it was 1.89 µM; in the experiment on NCI-H23 lung, 4.3 µM; with NCI/ADR-RES ovarian it was 2.27 µM; in the experiment on OVCAR-5 ovarian it was 2.43 µM. For the same compound, the GI50 was 2.12 µM in the experiment on RPMI-8226 leukemia, 2.04 µM in the experiment on SNB-75 CNS, 1.88 µM in the experiment with SW-620 colon and 1.79 µM in the experiment with UACC-257 melanoma. Moreover, the TGI turned out to be 17.4 µM in the experiment on A549 NSCLC; 14.7 µM in the experiment with HOP-62 NSCLC; 5.05 µM in the experiment on K-562 leukemia; 16.3 µM in the experiment with NCI-H23 lung; 5.76 µM in the experiment on NCI/ADR-RES ovarian; 7.33 µM in the experiment with OVCAR-5 ovarian. Besides, the TGI was 4.9 µM with RPMI-8226 leukemia, 9.65 µM in the experiment on SNB-75 CNS, 3.65 µM in the experiment on SW-620 colon and 3.31 µM in the experiment on UACC-257 melanoma.

As for `C=C1C(=O)O[C@H]2[C@H]1CC/C(COC(=O)c1cccnc1N)=C\CC[C@@]1(C)O[C@@H]21`, the GI50 with A549 NSCLC was 3.77 µM; in the experiment on HOP-62 NSCLC, 4.89 µM; with K-562 leukemia, 0.396 µM; in the experiment on NCI-H23 lung, 5.56 µM; in the experiment on NCI/ADR-RES ovarian, 4.56 µM; with OVCAR-5 ovarian it was 6.95 µM. In addition, the concentration for 50% growth inhibition (GI50) in the experiment with RPMI-8226 leukemia is 0.365 µM; with SNB-75 CNS, 3.16 µM; in the experiment on SW-620 colon, 0.583 µM; with UACC-257 melanoma, 2.32 µM. Besides, the TGI amounted to 16.5 µM in the experiment on A549 NSCLC; 18.6 µM in the experiment with HOP-62 NSCLC; 14.1 µM in the experiment on K-562 leukemia; 24.5 µM in the experiment with NCI-H23 lung; 39.9 µM in the experiment with NCI/ADR-RES ovarian; 21.7 µM in the experiment with OVCAR-5 ovarian. Further, the TGI in the experiment with RPMI-8226 leukemia worked out at 2.54 µM; in the experiment with SNB-75 CNS, 17.8 µM; in the experiment with SW-620 colon, 3.82 µM; in the experiment with UACC-257 melanoma, 12.6 µM.

Turning to `C[C@]12CC[C@H](O[C@@H]3O[C@H](CO[C@@H]4O[C@H](CO)[C@@H](O)[C@H](O)[C@H]4O)[C@@H](O)[C@H](O)[C@H]3O)C[C@@H]1CC[C@@H]1[C@@H]2CC[C@]2(C)[C@@H](C3=CC(=O)OC3)CC[C@]12O`, the TGI in the experiment with A549 NSCLC was 15.9 µM; with HOP-62 NSCLC, 31.1 µM; with K-562 leukemia, more than 100 µM; with NCI-H23 lung it was 28.1 µM; in the experiment with NCI/ADR-RES ovarian, 39.3 µM; with OVCAR-5 ovarian, more than 76.6 µM. For the same compound, the TGI in the experiment with RPMI-8226 leukemia is more than 87.9 µM; in the experiment on SNB-75 CNS it was more than 84.7 µM; in the experiment with SW-620 colon it was more than 100 µM; in the experiment with UACC-257 melanoma, more than 73.3 µM.
